Like-named read-outs stand apart in the source and are kept apart here.

Experiment [1] has as its target T1, His tagged PTPN2 (TC45) protein (Homo sapiens, UniProt P17706).
T1 construct: made in house
T1 sequence (P17706 with tags, fused parts or gaps isoform P17706-2): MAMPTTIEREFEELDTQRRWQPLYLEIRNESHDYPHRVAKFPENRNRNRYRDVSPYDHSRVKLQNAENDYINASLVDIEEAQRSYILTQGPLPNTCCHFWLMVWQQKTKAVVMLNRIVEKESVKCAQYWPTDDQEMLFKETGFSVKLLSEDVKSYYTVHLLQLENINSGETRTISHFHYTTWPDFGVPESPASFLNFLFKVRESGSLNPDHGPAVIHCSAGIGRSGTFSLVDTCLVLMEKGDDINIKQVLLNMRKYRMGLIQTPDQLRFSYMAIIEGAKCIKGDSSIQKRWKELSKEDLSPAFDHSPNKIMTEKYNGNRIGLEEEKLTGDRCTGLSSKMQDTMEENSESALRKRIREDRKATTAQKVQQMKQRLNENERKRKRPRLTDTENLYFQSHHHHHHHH
In words: Mobility shift assay (MSA) for potency of PTPN2 inhibitors. The experiment is classed as biochemical. A digest of the protocol:
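IC50 values were derived from % inhibition of substrate conversion, measured by microfluidic mobility shift (ex 488/em 530) after quenching. The fluorescent phosphotyrosine insulin-receptor peptide ([…]) reacted for 10 min at room temperature with 0.5 nM His-tagged TC45 PTPN2 that had been preincubated 10 min with compound (12 points, 1:3). Buffer was HEPES pH 7.5 with EGTA, EDTA, Tween 20 and DTT.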

The target of experiment [2] is T2, His tagged full-length PTP1B protein (Homo sapiens, UniProt P18031).
T2 construct: made in house
T2 sequence (P18031 with tags, fused parts or gaps): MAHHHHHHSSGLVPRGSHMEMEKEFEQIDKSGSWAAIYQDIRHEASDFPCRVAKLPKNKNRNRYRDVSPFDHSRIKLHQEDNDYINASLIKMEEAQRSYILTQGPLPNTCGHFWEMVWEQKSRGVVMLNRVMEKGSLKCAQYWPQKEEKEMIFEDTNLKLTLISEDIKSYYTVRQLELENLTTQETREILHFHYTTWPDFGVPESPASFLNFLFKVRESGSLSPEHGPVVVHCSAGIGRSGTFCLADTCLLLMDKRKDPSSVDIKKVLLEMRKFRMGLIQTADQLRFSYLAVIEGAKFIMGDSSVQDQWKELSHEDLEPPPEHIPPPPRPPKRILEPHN
In words: Mobility shift assay (MSA) for potency of PTP1B inhibitors. The experiment is classed as biochemical. On the procedure:
The enzymatic assay used to determine activity is a mobility shift assay using a LabChip EZ Reader by Caliper Life Sciences. The enzymatic reaction was carried out in assay buffer (50 mM HEPES pH 7.5, 1 mM EGTA, 10 mM EDTA, 0.01% Tween® 20, and 2 mM DTT). […] The enzyme (at 0.5 nM) was incubated with compound for 10 minutes at room temperature. […] The % inhibition was then used to calculate the IC50 values.

Experiment [3] deals with B16F10 mouse melanoma cells. In words: B16F10 IFNγ-induced cellular growth inhibition assay. Format: cell-based. Particulars: Mus musculus, B16-F10. A digest of the protocol:
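Live-cell imaging of confluence every 6 h over 5 days at 37 °C tracked growth of mouse B16F10 melanoma cells seeded overnight at 500/well. Semi-log compound series (final 100–0.001 μM, 0.1% DMSO) ran in both arms, ±IFNγ at 0.5 ng/mL final; inhibition taken relative to DMSO plus IFNγ when IFNγ-free DMSO wells passed 95% confluence.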

Where [4] appears, read: +0.5 ng/mL IFNγ, 33 μM compound, relative to DMSO control, read-out: % B16F10 growth inhibition (+0.5 ng/mL IFNγ) @ 33 μM.
[5] abbreviates: no IFNγ, 33 μM compound, read-out: % B16F10 growth inhibition (no IFNγ) @ 33 μM.

On to `O=C1CN(c2c(O)cc3ccc([C@H]4CCNC4)cc3c2F)S(=O)(=O)N1` (single isomer, unassigned) [Compound 233], for which the results for the IC50 in experiment [1] (read-out: PTPN2 MSA IC50) and in experiment [2] were 1 to 10 nM and 10 to 100 nM, respectively.
For the compound `O=C1CN(c2c(O)cc3ccc(C4CCCN4S(=O)(=O)C4CC4)cc3c2F)S(=O)(=O)N1` (stereo not drawn) [Compound 189, 5-{7-[1-(cyclopropanesulfonyl)pyrrolidin-2-yl]-1-fluoro-3-hydroxynaphthalen-2-yl}-1λ^6,2,5-thiadiazolidine-1,1,3-trione], the IC50 in experiment [1] (read-out: PTPN2 MSA IC50) was in the range of 1 to 10 nM; in experiment [2], 10 to 100 nM.
As for `O=C1CN(c2c(O)cc3ccc(C4=CCN(S(=O)(=O)C5CCOC5)C4)cc3c2F)S(=O)(=O)N1` (stereo not drawn) [Compound 285, 5-{1-fluoro-3-hydroxy-7-[1-(oxolane-3-sulfonyl)-2,5-dihydro-1H-pyrrol-3-yl]naphthalen-2-yl}-1λ^6,2,5-thiadiazolidine-1,1,3-trione], the IC50 in experiment [1] (read-out: PTPN2 MSA IC50) was below 1 nM; in experiment [2] it was 1 to 10 nM.
In the case of `O=C1CN(c2c(O)cc3ccc(C4CCCN(S(=O)(=O)C5CC5)C4)cc3c2F)S(=O)(=O)N1` (stereo not drawn) [Compound 186, 5-{7-[1-(cyclopropanesulfonyl)piperidin-3-yl]-1-fluoro-3-hydroxynaphthalen-2-yl}-1λ^6,2,5-thiadiazolidine-1,1,3-trione], the values for the IC50 in experiment [1] (read-out: PTPN2 MSA IC50) and in experiment [2] were 1 to 10 nM and 10 to 100 nM, respectively.
For `CC(COc1ccc2cc(O)c(N3CC(=O)NS3(=O)=O)c(F)c2c1)C1CC1` (stereo not drawn) [Compound 171, 5-[7-(2-cyclopropylpropoxy)-1-fluoro-3-hydroxynaphthalen-2-yl]-1λ^6,2,5-thiadiazolidine-1,1,3-trione], the half-inhibitory concentration (IC50) in experiment [1] (read-out: PTPN2 MSA IC50) was below 1 nM; in experiment [2], 10 to 100 nM.
With `O=C1CN(c2c(O)cc3ccc(C(CO)CCl)cc3c2F)S(=O)(=O)N1` (stereo not drawn) [Compound 221, 5-[7-(1-chloro-3-hydroxypropan-2-yl)-1-fluoro-3-hydroxynaphthalen-2-yl]-1λ^6,2,5-thiadiazolidine-1,1,3-trione], the results for the half-maximal inhibitory concentration (IC50) in experiment [1] (read-out: PTPN2 MSA IC50) and in experiment [2] were 10 to 100 nM and above 100 nM, respectively.
For `CC(C)(C)CC1CCN(c2ccc3cc(O)c(N4CC(=O)NS4(=O)=O)c(F)c3c2)C1` (stereo not drawn) [Compound 220, 5-{7-[3-(2,2-dimethylpropyl)pyrrolidin-1-yl]-1-fluoro-3-hydroxynaphthalen-2-yl}-1λ^6,2,5-thiadiazolidine-1,1,3-trione], the IC50 in experiment [1] (read-out: PTPN2 MSA IC50) was 10 to 100 nM; in experiment [2], above 100 nM.
On to `O=C1CN(c2c(O)cc3ccc(CC4CCNC4)cc3c2F)S(=O)(=O)N1` (stereo not drawn) [Compound 262, 5-{1-fluoro-3-hydroxy-7-[(pyrrolidin-3-yl)methyl]naphthalen-2-yl}-1λ^6,2,5-thiadiazolidine-1,1,3-trione], for which the IC50 was in the range of 1 to 10 nM in experiment [1] (read-out: PTPN2 MSA IC50) and 10 to 100 nM in experiment [2].
As for `O=C1CN(c2c(O)cc3ccc4occc4c3c2F)S(=O)(=O)N1` [Compound 104, 5-(9-fluoro-7-hydroxynaphtho[2,1-b]furan-8-yl)-1λ^6,2,5-thiadiazolidine-1,1,3-trione], in experiment [1] (read-out: PTPN2 MSA IC50), the IC50 is 1 to 10 nM. In addition, the inhibition at 33 µM in experiment [3] (setting [4]) was 25 to 59%; in experiment [3] (setting [5]), below 25%.
On to `O=C1CN(c2c(O)cc3ccc(OCCC(F)(F)F)cc3c2F)S(=O)(=O)N1` [Compound 180, 5-[1-fluoro-3-hydroxy-7-(3,3,3-trifluoropropoxy)naphthalen-2-yl]-1λ^6,2,5-thiadiazolidine-1,1,3-trione], for which the IC50 in experiment [1] (read-out: PTPN2 MSA IC50) fell in the range of 1 to 10 nM. In addition, the inhibition at 33 µM was 60 to 90% in experiment [3] (setting [4]) and below 25% in experiment [3] (setting [5]).
On the same counts, the results for `O=C1CN(c2c(O)cc3ccc(OC4CC4)cc3c2F)S(=O)(=O)N1` [Compound 223, 5-[7-(cyclopropyloxy)-1-fluoro-3-hydroxynaphthalen-2-yl]-1λ^6,2,5-thiadiazolidine-1,1,3-trione] are 1 to 10 nM, 60 to 90% and below 25%.
As for `N#C/C=C/c1ccc2cc(O)c(N3CC(=O)NS3(=O)=O)c(F)c2c1` [Compound 208, (2E)-3-[8-fluoro-6-hydroxy-7-(1,1,4-trioxo-1λ^6,2,5-thiadiazolidin-2-yl)naphthalen-2-yl]prop-2-enenitrile], the half-inhibitory concentration (IC50) in experiment [1] (read-out: PTPN2 MSA IC50) was 1 to 10 nM. Further, the inhibition at 33 µM in experiment [3] (setting [4]) and in experiment [3] (setting [5]) was below 25% throughout.
On to `CCCOc1ccc2cc(O)c(N3CC(=O)NS3(=O)=O)c(F)c2c1` [Compound 278, 5-(1-fluoro-3-hydroxy-7-propoxynaphthalen-2-yl)-1λ^6,2,5-thiadiazolidine-1,1,3-trione], for which the IC50 in experiment [1] (read-out: PTPN2 MSA IC50) fell in the range of 1 to 10 nM. Moreover, the figures for the inhibition at 33 µM in experiment [3] (setting [4]) and in experiment [3] (setting [5]) were 60 to 90% and below 25%, respectively.
Regarding `COc1ccc2cc(O)c(N3CC(=O)NS3(=O)=O)cc2c1` [Compound X, reference compound], the IC50 is 10 to 100 nM in experiment [1] (Table 4, read-out: PTPN2 MSA IC50) and 69 nM in experiment [1] (read-out: PTPN2 IC50). Further, the inhibition at 33 µM in experiment [3] (33 μM, in the presence of IFNγ, read-out: growth inhibition in the presence of IFNγ compared to DMSO controls) was below 25%; in experiment [3] (Table 4, +0.5 ng/mL IFNγ, 33 μM, read-out: % B16F10 growth inhibition (+0.5 ng/mL IFNγ) @ 33 μM), below 25%; in experiment [3] (Table 4, no IFNγ, 33 μM, read-out: % B16F10 growth inhibition (no IFNγ) @ 33 μM) it was below 25%.
As to `Nc1ccc(CS(=O)(=O)N2CC=C(c3ccc4cc(O)c(N5CC(=O)NS5(=O)=O)c(F)c4c3)C2)cc1` [Compound 184, 5-(7-{1-[(4-aminophenyl)methanesulfonyl]-2,5-dihydro-1H-pyrrol-3-yl}-1-fluoro-3-hydroxynaphthalen-2-yl)-1λ^6,2,5-thiadiazolidine-1,1,3-trione], in experiment [1] (read-out: PTPN2 MSA IC50), the IC50 is below 1 nM. Also, the inhibition at 33 µM was 25 to 59% in experiment [3] (setting [4]) and below 25% in experiment [3] (setting [5]).
In the case of `COc1ccc2cc(O)c(N3CC(=O)NS3(=O)=O)c(F)c2c1F` [Compound 205, 5-(1,8-difluoro-3-hydroxy-7-methoxynaphthalen-2-yl)-1λ^6,2,5-thiadiazolidine-1,1,3-trione], the IC50 in experiment [1] (read-out: PTPN2 MSA IC50) lay in the range of 10 to 100 nM. Also, the figures for the inhibition at 33 µM in experiment [3] (setting [4]) and in experiment [3] (setting [5]) were 25 to 59% and below 25%, respectively.
On the same counts, the results for `O=C1CN(c2c(O)cc3ccc(NCCCC(F)(F)F)cc3c2F)S(=O)(=O)N1` [Compound 166, 5-{1-fluoro-3-hydroxy-7-[(4,4,4-trifluorobutyl)amino]naphthalen-2-yl}-1λ^6,2,5-thiadiazolidine-1,1,3-trione] are 1 to 10 nM, above 90% and below 25%.
With `CCC(=O)CCOc1ccc2cc(O)c(N3CC(=O)NS3(=O)=O)c(F)c2c1` [Compound 155, 5-{1-fluoro-3-hydroxy-7-[(3-oxopentyl)oxy]naphthalen-2-yl}-1λ^6,2,5-thiadiazolidine-1,1,3-trione], the half-inhibitory concentration (IC50) in experiment [1] (read-out: PTPN2 MSA IC50) is below 1 nM. In addition, the inhibition at 33 µM in experiment [3] (setting [4]) and in experiment [3] (setting [5]) was 60 to 90% each time.
`O=C1CN(c2c(O)cc3ccc(OCCOCC4CC4)cc3c2F)S(=O)(=O)N1` [Compound 212, 5-{7-[2-(cyclopropylmethoxy)ethoxy]-1-fluoro-3-hydroxynaphthalen-2-yl}-1λ^6,2,5-thiadiazolidine-1,1,3-trione]: the IC50 in experiment [1] (read-out: PTPN2 MSA IC50) fell in the range of 1 to 10 nM. Besides, the values for the inhibition at 33 µM in experiment [3] (setting [4]) and in experiment [3] (setting [5]) were 60 to 90% and below 25%, respectively.
`CNc1ccc2cc(O)c(N3CC(=O)NS3(=O)=O)c(F)c2c1` [Compound 107, 5-[1-fluoro-3-hydroxy-7-(methylamino)naphthalen-2-yl]-1λ^6,2,5-thiadiazolidine-1,1,3-trione]: the IC50 in experiment [1] (read-out: PTPN2 MSA IC50) lay within 10 to 100 nM. Further, the inhibition at 33 µM in experiment [3] (setting [4]) is 60 to 90%; in experiment [3] (setting [5]) it was below 25%.
